Laboratory results from PMC3708431 (Evidence-based Complementary and Alternative Medicine : eCAM, 2013).

Experiments:
5-lipoxygenase = target: T1, 5-lipoxygenase (Homo sapiens, UniProt P09917); assay: spectrophotometric enzyme assay at […] nm, linoleic acid substrate, human recombinant enzyme; format: biochemical; settings: read-out: Anti-inflammatory assay 5-LOX, IC50
T1 construct: gene ALOX5
T1 sequence (P09917 1-674): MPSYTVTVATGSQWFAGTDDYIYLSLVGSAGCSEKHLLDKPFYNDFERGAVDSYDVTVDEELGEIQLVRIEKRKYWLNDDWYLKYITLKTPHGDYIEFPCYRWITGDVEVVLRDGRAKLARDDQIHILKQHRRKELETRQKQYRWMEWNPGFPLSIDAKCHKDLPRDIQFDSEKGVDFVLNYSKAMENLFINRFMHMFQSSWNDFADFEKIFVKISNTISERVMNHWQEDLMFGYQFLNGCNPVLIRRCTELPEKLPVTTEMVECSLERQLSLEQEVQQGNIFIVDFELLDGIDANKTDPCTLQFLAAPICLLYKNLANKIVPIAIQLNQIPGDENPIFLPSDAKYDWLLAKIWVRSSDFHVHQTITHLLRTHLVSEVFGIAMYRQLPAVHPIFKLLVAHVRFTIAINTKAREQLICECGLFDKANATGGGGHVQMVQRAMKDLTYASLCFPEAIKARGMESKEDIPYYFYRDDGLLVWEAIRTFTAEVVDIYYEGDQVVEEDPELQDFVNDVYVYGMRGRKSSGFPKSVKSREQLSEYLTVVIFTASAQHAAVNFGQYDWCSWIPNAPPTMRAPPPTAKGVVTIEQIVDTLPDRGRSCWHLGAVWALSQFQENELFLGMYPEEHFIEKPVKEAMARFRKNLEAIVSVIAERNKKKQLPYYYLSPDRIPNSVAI

acetylcholinesterase = target: T2, acetylcholinesterase (Electrophorus electricus, UniProt O42275); assay: Ellman spectrophotometric assay at […] nm, electric eel enzyme; format: biochemical; settings: read-out: Antiacetylcholinesterase assay, IC50
T2 construct: gene ache; Type-VI-S, EC 3.1.1.7
T2 sequence (O42275 24-633): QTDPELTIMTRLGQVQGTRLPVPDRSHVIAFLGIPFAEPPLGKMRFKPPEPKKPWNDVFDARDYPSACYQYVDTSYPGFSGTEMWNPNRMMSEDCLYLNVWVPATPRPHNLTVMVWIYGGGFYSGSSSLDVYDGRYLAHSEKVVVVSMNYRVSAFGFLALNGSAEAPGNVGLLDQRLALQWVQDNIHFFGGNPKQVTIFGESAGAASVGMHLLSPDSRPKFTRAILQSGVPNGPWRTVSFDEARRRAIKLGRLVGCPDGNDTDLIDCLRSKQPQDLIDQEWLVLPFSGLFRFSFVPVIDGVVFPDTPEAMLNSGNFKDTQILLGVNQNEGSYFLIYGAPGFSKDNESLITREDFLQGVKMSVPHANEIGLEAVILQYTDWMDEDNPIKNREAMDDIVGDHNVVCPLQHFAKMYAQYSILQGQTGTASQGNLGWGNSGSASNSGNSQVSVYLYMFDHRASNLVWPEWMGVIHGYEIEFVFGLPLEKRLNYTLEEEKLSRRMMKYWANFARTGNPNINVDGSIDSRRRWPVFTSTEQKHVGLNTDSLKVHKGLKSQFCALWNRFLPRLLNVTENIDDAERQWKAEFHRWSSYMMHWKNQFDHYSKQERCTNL

Compound `COc1cc2ccc(=O)oc2cc1O` [SC, 7-hydroxy-6 methoxycoumarin] has an IC50 (5-lipoxygenase) of 1.76 ± 0.01 µM and an IC50 (acetylcholinesterase) of 270 ± 0.02 µM.
